From US5596018A, “Antiviral agents against aids-causing virus” (priority 1988, dated 1997)

Key:
HIV-1 [1] = assay: Anti-HIV-1 assay in MT-4 cells, inhibition of viral cytopathogenicity; assay type: cell-based; conditions: for EC50: Human immunodeficiency virus 1, MT4, HIV-1, cytopathogenic effect, read-out: ED50 a: Antiviral 50% effective dose; for EC50 / SI: Selective index: MT-4 cells
HIV-1 [2] = assay: Anti-HIV-1 assay in HUT-78 cells, expression of viral antigen; assay type: cell-based; conditions: for SI: Selective index / EC50: HUT-78 cells; for EC50: Human immunodeficiency virus 1, HuT78, HIV-1 antigen expression, read-out: ED50 a: Antiviral 50% effective dose
in vitro = conditions: human
Protocol: Anti-HIV assays of fuchsinic acid were carried out in cultures of MT-4 and HUT-78 cells infected with AIDS-causing viruses such as HIV type 1 (HIV-1) and HIV type 2 (HIV-2), taking cytopathogenicity as a parameter of the inhibitory effect on replication of the viruses. The anti-HIV activity was also measured by monitoring the expression of viral antigen.

HIV-2 = assay: Anti-HIV-2 assay in MT-4 cells, inhibition of viral cytopathogenicity; assay type: cell-based; conditions: Human immunodeficiency virus 2, MT4; HIV-2, MT-4 cells, cytopathogenic effect; read-out: 50% effective dose (ED50) for HIV-2

Structure (SMILES) | EC50 (HIV-1 [1]) | SI: Selective index (HIV-1 [1]) | SI: Selective index (HIV-1 [2]) | EC50 (HIV-1 [2]) | CC50 (in vitro; hut-78 cells) | CC50 (in vitro; mt-4 cells) | Inhibition of cytopathogenic effect (CPE) (HIV-1 [1]; HIV-1, MT-4 cells, at 125 μM (FIG. 1-A)) | Inhibition of HIV-1 antigen (HIV-1 [2]; at 25 μM) | EC50 (HIV-2)
O=C(O)C1=CC(=C(c2ccc(O)c(C(=O)O)c2)c2ccc(O)c(C(=O)O)c2)C=CC1=O [ATA, Aurintricarboxylic acid] | 5 µM | 118 | 19 | 0.69 µM | 13 µM | 590 µM |  |  | 
O=C1C=CC(=C(c2ccc(O)cc2)c2ccc(O)cc2)C=C1 [Aurin] | > 2.6 µM | < 1 | < 1 | > 2.3 µM | 2.3 µM | 2.6 µM |  |  | 
Cc1cc(C(=C2C=CC(=N)C(S(=O)(=O)O)=C2)c2ccc(N)c(S(=O)(=O)O)c2)cc(S(=O)(=O)O)c1N [Fuchsinic acid] | 42 µM | < 74 | < 39 | 16 µM | > 625 µM | > 3120 µM | complete inhibition | inhibited | 63 µM
Cc1ccc(C(=O)Nc2ccc(S(=O)(=O)O)c3cc(S(=O)(=O)O)cc(S(=O)(=O)O)c23)cc1NC(=O)c1cccc(NC(=O)Nc2cccc(C(=O)Nc3cc(C(=O)Nc4ccc(S(=O)(=O)O)c5cc(S(=O)(=O)O)cc(S(=O)(=O)O)c45)ccc3C)c2)c1 [Suramin] | 32 µM | 20 | 3.1 | 18 µM | 55 µM | 625 µM |  |  | 
